Assay: Weights, CBC, blood chemistry and signs of toxicity, Table S1 sheet PD-2 (infected Aotus, twice a day for seven days)
Format: in vivo, Aotus lemurinus lemurinus
Conditions: oral 10 mg/kg twice a day/7 days
Experimental: Laboratory bred Aotus lemurinus lemurinus monkeys (0.75–0.89 kg) were maintained as described. […] Blood samples were collected before the treatment started (t = 0), 0.05 h, 0.5 h, 1 h, 2 h, 6 h, 24 h, 48 h, and 6, 12 and 18 days after the first dose from each monkey and processed as described below. Pharmacokinetic parameters were calculated using PKSolver. For efficacy studies, Aotus monkeys were inoculated intravenously with 5×10^6 parasites of the FVO strain of P. falciparum in an approved treatment protocol. […] Parasitaemia was determined by Giemsa-stained thick blood smears prepared daily from the marginal ear vein [41]. Blood samples were collected from each monkey and transferred to tubes containing lithium heparin, centrifuged and both plasma and blood cells were frozen at −80 °C until analysis. Animals received a physical examination and blood chemistry profiles were monitored after treatment as described previously. Any monkey not responding appropriately to treatment was cured of its infection with mefloquine (40 mg kg^−1). […] The day of clearance is defined as the first of three consecutive days in which the thick blood films are parasite negative. The day of recrudescence is the first of three consecutive days of positive thick blood films after a period of clearance. Suppression is defined as a transient decrease in the parasite count post-treatment without clearance.

## Nc1nc2c(CN3CC(O)C(CO)C3)c[nH]c2c(=O)[nH]1 (centres unmarked) [BCX4945, 4′-deaza-1′-aza-2′-deoxy-1′-(9-methylene)-Immucillin-G]
25044 Male (ITM2), day 8
  Blood Urea Nitrogen: 14.7 mg/dL
  Creatine: 0.5 mg/dL
  Erythrocytes: 4.72e+06 µL⁻¹
  Glutamate Pyruvate Transaminase: 18.8 U/L
  Granulocytes (%): 14.6%
  Granulocytes (x 103/ul): 2.8 x 103/ul
  Hematocrit: 36.6%
  Hemoglobin: 12.9 g/dL
  Leucocytes: 18900 µL⁻¹
  Lymphocytes (%): 74.4%
  Lymphocytes (x 103/ul): 14.1 x 103/ul
  Mean Corpuscular Volume: 77.6 fL
  Mean Hemoglobin Content: 35.3 g/dL
  Mean Platelet Volume: 11.8 fL
  Monocytes (%): 11%
  Monocytes (x 103/ul): 2.1 x 103/ul
  Platelets: 276000 µL⁻¹
  Red Cell Distribution Width: 16.9%
  Reticulocytes: 1.8%
  WEIGHT: 820 g
25044 Male (ITM2), day 12
  Blood Urea Nitrogen: 12.6 mg/dL
  Creatine: 0.5 mg/dL
  Erythrocytes: 4.24e+06 µL⁻¹
  Glutamate Pyruvate Transaminase: 48.0 U/L
  Granulocytes (%): 20%
  Granulocytes (x 103/ul): 2.6 x 103/ul
  Hematocrit: 33.5%
  Hemoglobin: 11.4 g/dL
  Leucocytes: 13200 µL⁻¹
  Lymphocytes (%): 68.9%
  Lymphocytes (x 103/ul): 9.1 x 103/ul
  Mean Corpuscular Hemoglobin: 27 pg
  Mean Corpuscular Volume: 78.9 fL
  Mean Hemoglobin Content: 34.2 g/dL
  Mean Platelet Volume: 9.6 fL
  Monocytes (%): 11.1%
  Monocytes (x 103/ul): 1.5 x 103/ul
  Platelets: 264000 µL⁻¹
  Red Cell Distribution Width: 20.2%
  Reticulocytes: 3.8%
  WEIGHT: 840 g
25044 Male (ITM2), day 15
  Blood Urea Nitrogen: 13.8 mg/dL
  Creatine: 0.5 mg/dL
  Erythrocytes: 4.68e+06 µL⁻¹
  Glutamate Pyruvate Transaminase: 29.1 U/L
  Granulocytes (%): 11.9%
  Granulocytes (x 103/ul): 3.4 x 103/ul
  Hematocrit: 38.8%
  Hemoglobin: 13.6 g/dL
  Leucocytes: 28300 µL⁻¹
  Lymphocytes (%): 78.1%
  Lymphocytes (x 103/ul): 22.1 x 103/ul
  Mean Corpuscular Hemoglobin: 29 pg
  Mean Corpuscular Volume: 83 fL
  Mean Hemoglobin Content: 34.9 g/dL
  Mean Platelet Volume: 12.8 fL
  Monocytes (%): 10%
  Monocytes (x 103/ul): 2.8 x 103/ul
  Platelets: 258000 µL⁻¹
  Red Cell Distribution Width: 23.1%
  Reticulocytes: 2.6%
  WEIGHT: 830 g
25044 Male (ITM2), day 18
  Blood Urea Nitrogen: 15.2 mg/dL
  Creatine: 0.5 mg/dL
  Erythrocytes: 4.88e+06 µL⁻¹
  Glutamate Pyruvate Transaminase: 22.3 U/L
  Granulocytes (%): 15.5%
  Granulocytes (x 103/ul): 2.7 x 103/ul
  Hematocrit: 40.6%
  Hemoglobin: 13.7 g/dL
  Leucocytes: 17100 µL⁻¹
  Lymphocytes (%): 78%
  Lymphocytes (x 103/ul): 13.3 x 103/ul
  Mean Corpuscular Hemoglobin: 28.1 pg
  Mean Corpuscular Volume: 83.2 fL
  Mean Hemoglobin Content: 33.8 g/dL
  Mean Platelet Volume: 12.1 fL
  Monocytes (%): 6.5%
  Monocytes (x 103/ul): 1.1 x 103/ul
  Platelets: 247000 µL⁻¹
  Red Cell Distribution Width: 22.6%
  Reticulocytes: 2.2%
  WEIGHT: 820 g
25044 Male (ITM2), day 25
  Erythrocytes: 4.04e+06 µL⁻¹
  Granulocytes (%): 11.4%
  Granulocytes (x 103/ul): 2.3 x 103/ul
  Hematocrit: 34.8%
  Leucocytes: 19900 µL⁻¹
  Lymphocytes (%): 79.1%
  Lymphocytes (x 103/ul): 15.7 x 103/ul
  Mean Corpuscular Hemoglobin: 27.6 pg
  Mean Corpuscular Volume: 86 fL
  Mean Hemoglobin Content: 32.1 g/dL
  Mean Platelet Volume: 12.7 fL
  Monocytes (%): 9.5%
  Monocytes (x 103/ul): 1.9 x 103/ul
  Platelets: 166000 µL⁻¹
  Red Cell Distribution Width: 22.2%
  Reticulocytes: 2.6%
  WEIGHT: 827 g
25044 Male (ITM2), day -10
  Blood Urea Nitrogen: 11.3 mg/dL
  Creatine: 0.5 mg/dL
  Erythrocytes: 5.93e+06 µL⁻¹
  Glutamate Pyruvate Transaminase: 17.1 U/L
  Granulocytes (%): 13.3%
  Granulocytes (x 103/ul): 4.2 x 103/ul
  Hematocrit: 44.6%
  Hemoglobin: 15.8 g/dL
  Leucocytes: 31300 µL⁻¹
  Lymphocytes (%): 76.1%
  Lymphocytes (x 103/ul): 23.8 x 103/ul
  Mean Corpuscular Hemoglobin: 26.7 pg
  Mean Corpuscular Volume: 75.2 fL
  Mean Hemoglobin Content: 35.5 g/dL
  Mean Platelet Volume: 13.1 fL
  Monocytes (%): 10.6%
  Monocytes (x 103/ul): 3.3 x 103/ul
  Platelets: 236000 µL⁻¹
  Red Cell Distribution Width: 13%
  Reticulocytes: 1.2%
  WEIGHT: 814 g
26027 Male (ITM3), day 8
  Blood Urea Nitrogen: 12.75 mg/dL
  Creatine: 0.5 mg/dL
  Erythrocytes: 4.51e+06 µL⁻¹
  Glutamate Pyruvate Transaminase: 28.1 U/L
  Granulocytes (%): 18.4%
  Granulocytes (x 103/ul): 2.2 x 103/ul
  Hematocrit: 36.2%
  Hemoglobin: 13.0 g/dL
  Leucocytes: 11800 µL⁻¹
  Lymphocytes (%): 70.2%
  Lymphocytes (x 103/ul): 8.3 x 103/ul
  Mean Corpuscular Hemoglobin: 28.9 pg
  Mean Corpuscular Volume: 80.2 fL
  Mean Hemoglobin Content: 36 g/dL
  Mean Platelet Volume: 11.7 fL
  Monocytes (%): 11.4%
  Monocytes (x 103/ul): 1.3 x 103/ul
  Platelets: 216000 µL⁻¹
  Red Cell Distribution Width: 11.8%
  Reticulocytes: 1.4%
  WEIGHT: 890 g
26027 Male (ITM3), day 12
  Blood Urea Nitrogen: 12.9 mg/dL
  Creatine: 0.5 mg/dL
  Erythrocytes: 4.4e+06 µL⁻¹
  Glutamate Pyruvate Transaminase: 33.4 U/L
  Granulocytes (%): 26.5%
  Granulocytes (x 103/ul): 4.8 x 103/ul
  Hematocrit: 36.1%
  Hemoglobin: 13.1 g/dL
  Leucocytes: 18200 µL⁻¹
  Lymphocytes (%): 67.6%
  Lymphocytes (x 103/ul): 12.3 x 103/ul
  Mean Corpuscular Hemoglobin: 29.8 pg
  Mean Corpuscular Volume: 82.1 fL
  Mean Hemoglobin Content: 36.3 g/dL
  Mean Platelet Volume: 12.2 fL
  Monocytes (%): 5.9%
  Monocytes (x 103/ul): 1.1 x 103/ul
  Platelets: 339000 µL⁻¹
  Red Cell Distribution Width: 12.1%
  Reticulocytes: 2.6%
  WEIGHT: 890 g
26027 Male (ITM3), day 15
  Blood Urea Nitrogen: 17.15 mg/dL
  Creatine: 0.512 mg/dL
  Erythrocytes: 4.77e+06 µL⁻¹
  Glutamate Pyruvate Transaminase: 27.1 U/L
  Granulocytes (%): 32.6%
  Granulocytes (x 103/ul): 4 x 103/ul
  Hematocrit: 40.6%
  Hemoglobin: 14.5 g/dL
  Leucocytes: 12200 µL⁻¹
  Lymphocytes (%): 63%
  Lymphocytes (x 103/ul): 7.7 x 103/ul
  Mean Corpuscular Hemoglobin: 30.4 pg
  Mean Corpuscular Volume: 85 fL
  Mean Hemoglobin Content: 35.8 g/dL
  Monocytes (%): 4.4%
  Monocytes (x 103/ul): 0.5 x 103/ul
  Platelets: 245000 µL⁻¹
  Red Cell Distribution Width: 18.5%
  Reticulocytes: 3.1%

Reference: publication PMC3214022, “Plasmodium falciparum Parasites Are Killed by a Transition State Analogue of Purine Nucleoside Phosphorylase in a Primate Animal Model” (PLoS ONE, 2011)
